# Data from patent US4539208A, “Combination of thienamycin-type antibiotics with dipeptidase inhibitors” (Merck & Co., Inc., priority 1981, dated 1985).
# Target: T1, renal dipeptidase (E.C.3.4.13.11) (Sus scrofa, UniProt P22412)
# T1 construct: solubilized preparation of dipeptidase isolated from hog kidneys; from tissue; host or cells: hog (pig) kidney
# T1 sequence (P22412 17-409): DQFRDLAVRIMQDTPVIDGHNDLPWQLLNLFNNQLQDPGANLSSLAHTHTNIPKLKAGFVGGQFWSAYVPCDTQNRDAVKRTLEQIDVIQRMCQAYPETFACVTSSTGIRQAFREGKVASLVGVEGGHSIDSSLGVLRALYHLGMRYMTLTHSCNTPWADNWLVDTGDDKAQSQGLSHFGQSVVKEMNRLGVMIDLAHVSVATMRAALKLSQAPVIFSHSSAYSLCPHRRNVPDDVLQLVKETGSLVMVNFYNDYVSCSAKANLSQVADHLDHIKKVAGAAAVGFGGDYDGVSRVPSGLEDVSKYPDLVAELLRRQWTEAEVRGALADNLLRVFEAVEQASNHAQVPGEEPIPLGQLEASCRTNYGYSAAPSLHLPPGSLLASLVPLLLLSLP
# Test: Inhibition of GDP (glycyldehydrophenylalanine) hydrolysis by solubilized renal dipeptidase
# Type: biochemical, hog (pig) kidney
# Conditions: not given
# Protocol: This measured the ability of compounds to inhibit hydrolysis of glycyldehydrophenylalanine (GDP) by a solubilized preparation of dipeptidase isolated from hog kidneys. The procedure is as follows: to a 1 ml. system containing 50 mM "MOPS" (3-(N-morpholino)propanesulfonic acid) buffer, pH 7.1, is added 5 μg of lyophilized enzyme, and the test compound at a final concentration of 0.1 mM. After a five minute incubation at 37° C., GDP is added to a final concentration of 0.05 mM. Incubation is continued for 10 minutes, at 37° C. and hydrolysis of GDP is measured by the change in optical density with time at 275 nm. Inhibition of the enzyme is gauged by comparison to a standard run containing no inhibitor and is expressed as the inhibitor binding constant, Ki.
# A 1 ml. system of 50 mM "MOPS" buffer, pH 7.1, is used. To this is added 5 μg of the pig renal enzyme and an amount of the test compound to bring its final concentration to 0.1 mM. After a five minute incubation at 37° C., an amount of GDP is added to bring its final concentration to 0.05 mM. The system is again incubated for 10 minutes, at 37° C. Hydrolysis of GDP is measured by its change in optical density with time at 275 nm. Inhibition of the enzyme is gauged by comparison to a standard run containing no inhibitor and is presented as percent inhibition.
row,SMILES,Ki [nM]
1,"C/C=C(\NC(=O)C1CC1)C(=O)O [Compound 10, Z-2-cyclopropylcarboxamido-2-butenoic acid]",9000
2,CCCCC/C=C(\NC(=O)C1CC1(Cl)Cl)C(=O)O (stereo not shown) [Compound 12],59
3,CN(C)C(=N)NCCCCC/C=C(\NC(=O)C1CC1(C)C)C(=O)O (stereo not shown) [Compound 16],890
4,CC(C)/C=C(\NC(=O)C1CC1(C)C)C(=O)O (stereo not shown) [Compound 41],1600
5,CC1(C)CC1C(=O)N/C(=C\CCC(=O)O)C(=O)O (stereo not shown) [Compound 51],145
6,CCCCCC/C=C(\NC(=O)C1CC1(C)C)C(=O)O (stereo not shown) [Compound 56],149
7,CCCCCCC/C=C(\NC(=O)C1CC1(C)C)C(=O)O (stereo not shown) [Compound 57],92
8,CC1(C)CC1C(=O)N/C(=C\Cc1ccccc1)C(=O)O (stereo not shown) [Compound 59],440
9,CC1(C)CC1C(=O)N/C(=C\CC1CCCO1)C(=O)O (stereo not shown) [Compound 65],390

# Further lines, results first:
row,Ki [nM],SMILES
1,39000,"C/C=C(\NC(=O)CCCCC)C(=O)O [Compound 28, Z-2-hexanamido-2-butenoic acid]"
2,20000,"C/C=C(\NC(=O)CCCCCl)C(=O)O [Compound 36, Z-2-(5-chlorovaleramido)-2-butenoic acid]"

# Same assay, conditions: 10^-4 M inhibitor; GDP 0.05 mM; pH 7.1; 37° C.
SMILES,inhibition at 100 µM [%],% Inhibition at 10^-4 M [%]
"C/C=C(\NC(=O)C1CC1(C)C)C(=O)O (racemic) [Compound 2, Z-2-(2,2-dimethylcyclopropanecarboxamido)-2-butenoic acid]",98,
CC1(C)CC1C(=O)N/C(=C\CCCC(=O)O)C(=O)O (racemic) [Compound 64],99,
"C/C=C(\NC(=O)C1CC1(C)C)C(=O)O (single isomer, unassigned; (+)) [Compound 2a, (+)-Z-2-(2,2-dimethylcyclopropanecarboxamido)-2-butenoic acid]",100,
CC/C=C(\NC(=O)C1CC1(C)C)C(=O)O (stereo not shown) [Compound 1],,98
C/C=C(\NC(=O)C1CC1C)C(=O)O (stereo not shown) [Compound 3],92,
C/C=C(\NC(=O)C1C(C)C1C)C(=O)O (stereo not shown) [Compound 6],83,
C/C=C(\NC(=O)C1CCC1)C(=O)O [Compound 8],80,
C/C=C(\NC(=O)CC1CCC1)C(=O)O [Compound 9],83,
"C/C=C(\NC(=O)C1CC1)C(=O)O [Compound 10, Z-2-cyclopropylcarboxamido-2-butenoic acid]",97,
C/C=C(\NC(=O)CC1CC1)C(=O)O [Compound 22],64,
C/C=C(\NC(=O)C1CCCC1)C(=O)O [Compound 24],59,
C/C=C(\NC(=O)CCC1CCCC1)C(=O)O [Compound 26],56,
C/C=C(\NC(=O)CCC1CCCCC1)C(=O)O [Compound 27],54,
O=C(O)CC/C=C(\NC(=O)C1CC1)C(=O)O [Compound 33],90,
C/C=C(\NC(=O)C1CC1C(C)(C)C)C(=O)O (stereo not shown) [Compound 38],90,
C/C=C(\NC(=O)C1CC1(C)CC)C(=O)O (stereo not shown) [Compound 40],100,
CC(C)/C=C(\NC(=O)C1CC1(C)C)C(=O)O (stereo not shown) [Compound 41],96,
C/C=C(\NC(=O)C1CC1(CC)CC)C(=O)O (stereo not shown) [Compound 42],98,
C/C=C(\NC(=O)C1CC1CC)C(=O)O (stereo not shown) [Compound 43],96,

SMILES,inhibition at 100 µM [%],% Inhibition at 10^-4 M [%]
C/C=C(\NC(=O)C1CC1(C)C(C)C)C(=O)O (stereo not shown) [Compound 44],95,
CC/C=C(\NC(=O)C1CC1(C)C)C(=O)O (stereo not shown) [Compound 45],98,
CC1(C)CC1C(=O)N/C(=C\c1ccccc1)C(=O)O (stereo not shown) [Compound 46],100,
CCC/C=C(\NC(=O)C1CC1(C)C)C(=O)O (stereo not shown) [Compound 47],98,
CC(C)C/C=C(\NC(=O)C1CC1(C)C)C(=O)O (stereo not shown) [Compound 48],97,
CCCC/C=C(\NC(=O)C1CC1(C)C)C(=O)O (stereo not shown) [Compound 49],100,
CCCCC/C=C(\NC(=O)C1CC1(C)C)C(=O)O (stereo not shown) [Compound 50],100,
CC1(C)CC1C(=O)N/C(=C\CCC(=O)O)C(=O)O (stereo not shown) [Compound 51],98,
CC1(C)CC1C(=O)N/C(=C\CC1CCCCC1)C(=O)O (stereo not shown) [Compound 52],100,
CC1(C)CC1C(=O)N/C(=C\CCc1ccccc1)C(=O)O (stereo not shown) [Compound 53],96,
CSCC/C=C(\NC(=O)C1CC1(C)C)C(=O)O (stereo not shown) [Compound 54],99,
CC1(C)CC1C(=O)N/C(=C\CCS(C)(=O)=O)C(=O)O (stereo not shown) [Compound 55],96,
CCCCCC/C=C(\NC(=O)C1CC1(C)C)C(=O)O (stereo not shown) [Compound 56],98,
CCCCCCC/C=C(\NC(=O)C1CC1(C)C)C(=O)O (stereo not shown) [Compound 57],99,
CCCCCCCCCC/C=C(\NC(=O)C1CC1(C)C)C(=O)O (stereo not shown) [Compound 58],96,
CC1(C)CC1C(=O)N/C(=C\Cc1ccccc1)C(=O)O (stereo not shown) [Compound 59],98,
COCC/C=C(\NC(=O)C1CC1(C)C)C(=O)O (stereo not shown) [Compound 61],98,
CC(C)CC/C=C(\NC(=O)C1CC1(C)C)C(=O)O (stereo not shown) [Compound 63],98,

# The remaining lines, values ahead:
inhibition at 100 µM [%],% Inhibition at 10^-4 M [%],SMILES
87,,CC/C=C(\NC(=O)CC(C)C)C(=O)O [Compound 4]
81,,C/C=C(\NC(=O)CC(C)CC(C)(C)C)C(=O)O (stereo not shown) [Compound 5]
91,,"C/C=C(\NC(=O)CC(C)C)C(=O)O [Compound 7, Z-2-isovaleramido-2-butenoic acid]"
82,,C/C=C(\NC(=O)CC(C)CC)C(=O)O (stereo not shown) [Compound 11]
75,,"C/C=C(\NC(=O)CC(C)(C)C)C(=O)O [Compound 18, Z-2-t-butylacetamido-2-butenoic acid]"
72,,"C/C=C(\NC(=O)CCCCCCC)C(=O)O [Compound 19, Z-2-octanamido-2-butenoic acid]"
69,,"C/C=C(\NC(=O)CCC)C(=O)O [Compound 20, Z-2-butyramido-2-butenoic acid]"
68,,C/C=C(\NC(=O)CCCC1CCCCC1)C(=O)O [Compound 21]
64,,"C/C=C(\NC(=O)CCCC)C(=O)O [Compound 23, Z-2-valeramido-2-butenoic acid]"
57,,"C/C=C(\NC(=O)CCCCC(C)C)C(=O)O [Compound 25, Z-2-(6-methylheptanamido)-2-butenoic acid]"
54,,"C/C=C(\NC(=O)CCCCC)C(=O)O [Compound 28, Z-2-hexanamido-2-butenoic acid]"
49,,C/C=C(\NC(=O)CCCCCC)C(=O)O [Compound 29]
33,,"C/C=C(\NC(=O)C(CC)CCCC)C(=O)O (stereo not shown) [Compound 30, Z-2-(2-Ethylhexanamido)-2-butenoic acid]"
13,,"C/C=C(\NC(=O)C(CCC)CCC)C(=O)O [Compound 31, Z-2-di-n-propylacetamido-2-butenoic acid]"
31,,C/C=C(\NC(=O)C(C)C)C(=O)O [Compound 32]
88,,C/C=C(\NC(=O)CC(C)CCOC)C(=O)O (stereo not shown) [Compound 34]
70,,C/C=C(\NC(=O)CCCCCBr)C(=O)O [Compound 35]
64,,"C/C=C(\NC(=O)CCCCCl)C(=O)O [Compound 36, Z-2-(5-chlorovaleramido)-2-butenoic acid]"
72,,C/C=C(\NC(=O)CCCc1ccccc1)C(=O)O [Compound 37]
95,,"CCCCC/C=C(\NC(=O)CC(C)C)C(=O)O [Compound 39, Z-2-isovaleramido-2-octenoic acid]"

# Same assay, conditions: racemate resolved; dextrorotatory isomer has S-configuration
row,SMILES,activity of resolved isomers
1,"CCCCC/C=C(\NC(=O)C1CC1(C)C)C(=O)O (racemic) [Z-2-(2,2-dimethylcyclopropanecarboxamido)-2-octenoic acid]",The activity resides in the dextrorotatory isomer

# System: Staphalococcus aureus
# Test: Systemic efficacy of thienamycin with co-administered inhibitor, Staphylococcus aureus infection in mouse
# Type: in vivo
# Conditions: coadministered with thienamycin
row,SMILES,enhancement of systemic antibacterial activity of thienamycin
1,"C/C=C(\NC(=O)CC(C)C)C(=O)O [Compound 7, Z-2-isovaleramido-2-butenoic acid]",enhanced approximately three-fold
